# Data published in US12049450B2, “Pyridyloxy-carboxylate derivative and preparation method therefor, herbicidal composition, and use” (Qingdao Kingagroot Chemical Compound Co., Ltd., priority 2018, dated 2024).
# Legend:
# Test in all cases: Post-emergence test experiment (greenhouse pot, spray at 2-3 leaf stage)
# Format in all cases: in vivo
# Conditions in all cases: 1000 g/ha; post-emergence spray at 2-3 leaf stage; assessed after 3 weeks; fresh weight inhibition rate
# [1] = test system: Abutilon theophrasti
# Method in brief: (§1)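 Activity graded levels 0-5 by fresh-weight inhibition (level 5 above 85%, level 0 below 5%), assessed 3 weeks after treatment. Plants grown in greenhouse pots were sprayed post-emergence at 2-3 leaves using acetone/tween-80 solutions with methyl oleate synergist (1.5 L/ha).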
# [2] = test system: Digitaria sanguinalis
# Method in brief: as §1
# [3] = test system: Echinochloa crusgalli
# Method in brief: as §1
# [4] = test system: Galium spurium
# Method in brief: as §1
# [5] = test system: Monochoria vaginalis
# Method in brief: as §1
SMILES,Activity level (growth inhibition rate) Abutilon theophrasti [1],Activity level (growth inhibition rate) Digitaria sanguinalis [2],Activity level (growth inhibition rate) Echinochloa crusgalli [3],Activity level (growth inhibition rate) Galium spurium [4],Activity level (growth inhibition rate) Monochoria Vaginalis [5]
CC(Oc1nc(F)c(Cl)c(N)c1Cl)C(=O)OCC1CCCO1 (stereo not shown) [Compound 68],5 (Level 5: the growth inhibition rate is greater than 85%),5 (Level 5: the growth inhibition rate is greater than 85%),5 (Level 5: the growth inhibition rate is greater than 85%),5 (Level 5: the growth inhibition rate is greater than 85%),5 (Level 5: the growth inhibition rate is greater than 85%)
Cc1ccccc1COC(=O)C(C)Oc1nc(F)c(Cl)c(N)c1Cl (stereo not shown) [Compound 69],5 (Level 5: the growth inhibition rate is greater than 85%),5 (Level 5: the growth inhibition rate is greater than 85%),5 (Level 5: the growth inhibition rate is greater than 85%),5 (Level 5: the growth inhibition rate is greater than 85%),5 (Level 5: the growth inhibition rate is greater than 85%)
CC(Oc1nc(F)c(Cl)c(N)c1Cl)C(=O)SCc1cccc(C(C)C)c1 (stereo not shown) [Compound 71],5 (Level 5: the growth inhibition rate is greater than 85%),5 (Level 5: the growth inhibition rate is greater than 85%),5 (Level 5: the growth inhibition rate is greater than 85%),5 (Level 5: the growth inhibition rate is greater than 85%),5 (Level 5: the growth inhibition rate is greater than 85%)
CC(Oc1nc(F)c(Cl)c(N)c1Cl)C(=O)OCc1ccc(C(C)C)cc1 (stereo not shown) [Compound 72],5 (Level 5: the growth inhibition rate is greater than 85%),5 (Level 5: the growth inhibition rate is greater than 85%),5 (Level 5: the growth inhibition rate is greater than 85%),5 (Level 5: the growth inhibition rate is greater than 85%),5 (Level 5: the growth inhibition rate is greater than 85%)
C/C=C/c1ccc(CSC(=O)C(C)Oc2nc(F)c(Cl)c(N)c2Cl)cc1 (stereo not shown) [Compound 73],5 (Level 5: the growth inhibition rate is greater than 85%),5 (Level 5: the growth inhibition rate is greater than 85%),5 (Level 5: the growth inhibition rate is greater than 85%),5 (Level 5: the growth inhibition rate is greater than 85%),5 (Level 5: the growth inhibition rate is greater than 85%)
CC(Oc1nc(F)c(Cl)c(N)c1Cl)C(=O)OCc1ccc(C2CC2)cc1 (stereo not shown) [Compound 74],5 (Level 5: the growth inhibition rate is greater than 85%),5 (Level 5: the growth inhibition rate is greater than 85%),5 (Level 5: the growth inhibition rate is greater than 85%),5 (Level 5: the growth inhibition rate is greater than 85%),5 (Level 5: the growth inhibition rate is greater than 85%)
CC(Oc1nc(F)c(Cl)c(N)c1Cl)C(=O)OC(C)c1ccc(Br)cc1 (stereo not shown) [Compound 77],5 (Level 5: the growth inhibition rate is greater than 85%),5 (Level 5: the growth inhibition rate is greater than 85%),5 (Level 5: the growth inhibition rate is greater than 85%),5 (Level 5: the growth inhibition rate is greater than 85%),5 (Level 5: the growth inhibition rate is greater than 85%)
CC(Oc1nc(F)c(Cl)c(N)c1Cl)C(=O)OCc1cccc(I)c1 (stereo not shown) [Compound 78],5 (Level 5: the growth inhibition rate is greater than 85%),5 (Level 5: the growth inhibition rate is greater than 85%),5 (Level 5: the growth inhibition rate is greater than 85%),5 (Level 5: the growth inhibition rate is greater than 85%),5 (Level 5: the growth inhibition rate is greater than 85%)
CC(Oc1nc(F)c(Cl)c(N)c1Cl)C(=O)OCc1cc(F)ccc1F (stereo not shown) [Compound 79],5 (Level 5: the growth inhibition rate is greater than 85%),5 (Level 5: the growth inhibition rate is greater than 85%),5 (Level 5: the growth inhibition rate is greater than 85%),5 (Level 5: the growth inhibition rate is greater than 85%),5 (Level 5: the growth inhibition rate is greater than 85%)
CC(Oc1nc(F)c(Cl)c(N)c1Cl)C(=O)OCc1cccc(Cl)c1Cl (stereo not shown) [Compound 80],5 (Level 5: the growth inhibition rate is greater than 85%),5 (Level 5: the growth inhibition rate is greater than 85%),5 (Level 5: the growth inhibition rate is greater than 85%),5 (Level 5: the growth inhibition rate is greater than 85%),5 (Level 5: the growth inhibition rate is greater than 85%)
CC(Oc1nc(F)c(Cl)c(N)c1Cl)C(=O)SCc1cc(F)cc(Cl)c1 (stereo not shown) [Compound 81],5 (Level 5: the growth inhibition rate is greater than 85%),5 (Level 5: the growth inhibition rate is greater than 85%),5 (Level 5: the growth inhibition rate is greater than 85%),5 (Level 5: the growth inhibition rate is greater than 85%),5 (Level 5: the growth inhibition rate is greater than 85%)
COc1cccc(F)c1CSC(=O)C(C)Oc1nc(F)c(Cl)c(N)c1Cl (stereo not shown) [Compound 84],5 (Level 5: the growth inhibition rate is greater than 85%),5 (Level 5: the growth inhibition rate is greater than 85%),5 (Level 5: the growth inhibition rate is greater than 85%),5 (Level 5: the growth inhibition rate is greater than 85%),5 (Level 5: the growth inhibition rate is greater than 85%)
CC(Oc1nc(F)c(Cl)c(N)c1Cl)C(=O)OCc1cc([N+](=O)[O-])ccc1F (stereo not shown) [Compound 86],5 (Level 5: the growth inhibition rate is greater than 85%),5 (Level 5: the growth inhibition rate is greater than 85%),5 (Level 5: the growth inhibition rate is greater than 85%),5 (Level 5: the growth inhibition rate is greater than 85%),5 (Level 5: the growth inhibition rate is greater than 85%)
CC(Oc1nc(F)c(Cl)c(N)c1Cl)C(=O)SCc1cccc(C(=O)O)c1 (stereo not shown) [Compound 87],5 (Level 5: the growth inhibition rate is greater than 85%),5 (Level 5: the growth inhibition rate is greater than 85%),5 (Level 5: the growth inhibition rate is greater than 85%),5 (Level 5: the growth inhibition rate is greater than 85%),5 (Level 5: the growth inhibition rate is greater than 85%)
CC(Oc1nc(F)c(Cl)c(N)c1Cl)C(=O)OCc1cccc(O)c1 (stereo not shown) [Compound 89],5 (Level 5: the growth inhibition rate is greater than 85%),5 (Level 5: the growth inhibition rate is greater than 85%),5 (Level 5: the growth inhibition rate is greater than 85%),5 (Level 5: the growth inhibition rate is greater than 85%),5 (Level 5: the growth inhibition rate is greater than 85%)
CC(Oc1nc(F)c(Cl)c(N)c1Cl)C(=O)OCc1cccc(N)c1 (stereo not shown) [Compound 90],5 (Level 5: the growth inhibition rate is greater than 85%),5 (Level 5: the growth inhibition rate is greater than 85%),5 (Level 5: the growth inhibition rate is greater than 85%),5 (Level 5: the growth inhibition rate is greater than 85%),5 (Level 5: the growth inhibition rate is greater than 85%)
CC(Oc1nc(F)c(Cl)c(N)c1Cl)C(=O)OCc1ccc(C#N)cc1 (stereo not shown) [Compound 91],5 (Level 5: the growth inhibition rate is greater than 85%),5 (Level 5: the growth inhibition rate is greater than 85%),5 (Level 5: the growth inhibition rate is greater than 85%),5 (Level 5: the growth inhibition rate is greater than 85%),5 (Level 5: the growth inhibition rate is greater than 85%)
